According to PubChem BioAssay AID2060900 (Molecular Pharmacology Branch, DTP, NCI, 2025):

Test system: 521955-158-R2-J5-PDC complex spheroids, viability
Experiment: Anticancer human tumor 521955-158-R2-J5-PDC patient-derived pancreatic carcinoma cell line growth inhibition [RAS]
Conditions: for IC50: curve of first compound; for viability, T/C: stronger effect = lower value; active = viability on the fitted dose curve at most 10% of control; inactive = the rest
Outline: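 Tumour cells grown as complex spheroids with HUVEC endothelial cells and mesenchymal stem cells, treated with RAS pathway inhibitor combinations. Each agent spans half-log steps from near clinical Cmax, or 10 microM where Cmax is unknown.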

[1] = second compound 0.000949 µM, first compound 0.0316 µM
[2] = second compound 0.000949 µM, first compound 0.1 µM
[3] = second compound 0.000949 µM, first compound 0.316 µM
[4] = second compound 0.000949 µM, first compound 1 µM
[5] = second compound 0.003 µM, first compound 0.0316 µM
[6] = second compound 0.003 µM, first compound 0.1 µM
[7] = second compound 0.003 µM, first compound 0.316 µM
[8] = second compound 0.003 µM, first compound 1 µM
[9] = second compound 0.00949 µM, first compound 0.0316 µM
[10] = second compound 0.00949 µM, first compound 0.1 µM
[11] = second compound 0.00949 µM, first compound 0.316 µM
[12] = second compound 0.00949 µM, first compound 1 µM
[13] = second compound 0.03 µM, first compound 0.0316 µM
[14] = second compound 0.03 µM, first compound 0.1 µM
[15] = second compound 0.03 µM, first compound 0.316 µM
[16] = second compound 0.03 µM, first compound 1 µM
[17] = second compound 0.0949 µM, first compound 0.0316 µM
[18] = second compound 0.0949 µM, first compound 0.1 µM
[19] = second compound 0.0949 µM, first compound 0.316 µM
[20] = second compound 0.0949 µM, first compound 1 µM
[21] = second compound 0.3 µM, first compound 0.0316 µM
[22] = second compound 0.3 µM, first compound 0.1 µM
[23] = second compound 0.3 µM, first compound 0.316 µM
[24] = second compound 0.3 µM, first compound 1 µM
[25] = second compound 0.000949 µM, first compound 3.16 µM
[26] = second compound 0.000949 µM, first compound 10 µM
[27] = second compound 0.003 µM, first compound 3.16 µM
[28] = second compound 0.003 µM, first compound 10 µM
[29] = second compound 0.00949 µM, first compound 3.16 µM
[30] = second compound 0.00949 µM, first compound 10 µM
[31] = second compound 0.03 µM, first compound 3.16 µM
[32] = second compound 0.03 µM, first compound 10 µM
[33] = second compound 0.0949 µM, first compound 3.16 µM
[34] = second compound 0.0949 µM, first compound 10 µM
[35] = second compound 0.3 µM, first compound 3.16 µM
[36] = second compound 0.3 µM, first compound 10 µM
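Note: compound exposure lasted seven days before the viability read.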
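Throughout, for viability, T/C: spheroids also contain HUVEC endothelial cells and mesenchymal stem cells as stroma.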

Nc1ccn(C2OC(CO)C(O)C2(F)F)c(=O)n1 (stereo unspecified) + CCn1c(-c2cccnc2C(C)OC)c2c3cc(ccc31)N1CCOC(CC(NC(=O)C(C(C)C)N(C)C(=O)C3(F)CCN(C(=O)C#CC(C)(C)N(C)C)CC3)C(=O)N3CCCC(N3)C(=O)OCC(C)(C)C2)C1
284 nM: IC50 (second compound 0.03 µM)
190 nM: IC50 (second compound 0.0949 µM)
inactive: viability, T/C (second compound 0.000949 µM, first compound 0.00316 µM) 112% | viability, T/C (second compound 0.000949 µM, first compound 0.01 µM) 80.2% | viability, T/C [1] 75.4% | viability, T/C [2] 56.8% | viability, T/C [3] 51.6% | viability, T/C [4] 14.4% | viability, T/C (second compound 0.003 µM, first compound 0.00316 µM) 97.8% | viability, T/C (second compound 0.003 µM, first compound 0.01 µM) 90.3% | viability, T/C [5] 79.3% | viability, T/C [6] 67.1% | viability, T/C [7] 39.6% | viability, T/C [8] 11.8% | viability, T/C (second compound 0.00949 µM, first compound 0.00316 µM) 85.3% | viability, T/C (second compound 0.00949 µM, first compound 0.01 µM) 91% | viability, T/C [9] 75.9% | viability, T/C [10] 79.8% | viability, T/C [11] 42.6% | viability, T/C [12] 15.6% | viability, T/C (second compound 0.03 µM, first compound 0.00316 µM) 95.5% | viability, T/C (second compound 0.03 µM, first compound 0.01 µM) 78.9% | viability, T/C [13] 69% | viability, T/C [14] 69.4% | viability, T/C [15] 53.4% | viability, T/C [16] 10.1% | viability, T/C (second compound 0.0949 µM, first compound 0.00316 µM) 79.5% | viability, T/C (second compound 0.0949 µM, first compound 0.01 µM) 77.9% | viability, T/C [17] 62.5% | viability, T/C [18] 65.2% | viability, T/C [19] 41.2% | viability, T/C [20] 11.2% | viability, T/C (second compound 0.3 µM, first compound 0.00316 µM) 72.2% | viability, T/C (second compound 0.3 µM, first compound 0.01 µM) 66.9% | viability, T/C [21] 59.6% | viability, T/C [22] 51.8% | viability, T/C [23] 36.5% | viability, T/C [24] 12.6%
156 nM: IC50 (second compound 0.000949 µM)
251 nM: IC50 (second compound 0.00949 µM)
204 nM: IC50 (second compound 0.003 µM)
109 nM: IC50 (second compound 0.3 µM)

CC(Nc1ccc2c(c1)OCCn1cc(N3C(=O)OCC3C(F)F)nc1-2)C(N)=O (stereo unspecified) + CCn1c(-c2cccnc2C(C)OC)c2c3cc(ccc31)N1CCOC(CC(NC(=O)C(C(C)C)N(C)C(=O)C3(F)CCN(C(=O)C#CC(C)(C)N(C)C)CC3)C(=O)N3CCCC(N3)C(=O)OCC(C)(C)C2)C1
131 nM: IC50 (second compound 0.000949 µM)
inactive: viability, T/C [1] 63.1% | viability, T/C [2] 46.7% | viability, T/C [3] 34.7% | viability, T/C [4] 27% | viability, T/C [25] 83.6% | viability, T/C [26] 17.9% | viability, T/C [5] 59.7% | viability, T/C [6] 36.6% | viability, T/C [7] 32.3% | viability, T/C [8] 23.8% | viability, T/C [27] 93.3% | viability, T/C [28] 16.3% | viability, T/C [9] 41.8% | viability, T/C [10] 46.3% | viability, T/C [11] 31.9% | viability, T/C [12] 26.3% | viability, T/C [29] 108% | viability, T/C [30] 15.6% | viability, T/C [13] 49.8% | viability, T/C [14] 44.2% | viability, T/C [15] 33.9% | viability, T/C [16] 30.8% | viability, T/C [31] 70.1% | viability, T/C [32] 13.9% | viability, T/C [17] 39.1% | viability, T/C [18] 33.6% | viability, T/C [19] 28% | viability, T/C [20] 22.4% | viability, T/C [33] 74.8% | viability, T/C [34] 13.6% | viability, T/C [21] 39.1% | viability, T/C [22] 32.6% | viability, T/C [23] 27.3% | viability, T/C [24] 24.9% | viability, T/C [35] 53.5% | viability, T/C [36] 12.8%
< 31.6 nM: IC50 (second compound 0.003 µM) | IC50 (second compound 0.00949 µM) | IC50 (second compound 0.03 µM) | IC50 (second compound 0.0949 µM) | IC50 (second compound 0.3 µM)

CC(=O)OC12COC1CC(O)C1(C)C(=O)C(O)C3=C(C)C(OC(=O)C(O)C(NC(=O)OC(C)(C)C)c4ccccc4)CC(O)(C(OC(=O)c4ccccc4)C21)C3(C)C (stereo unspecified) + CCn1c(-c2cccnc2C(C)OC)c2c3cc(ccc31)N1CCOC(CC(NC(=O)C(C(C)C)N(C)C(=O)C3(F)CCN(C(=O)C#CC(C)(C)N(C)C)CC3)C(=O)N3CCCC(N3)C(=O)OCC(C)(C)C2)C1
inactive: viability, T/C [1] 47.5% | viability, T/C [2] 23% | viability, T/C [3] 24.6% | viability, T/C [4] 22% | viability, T/C [25] 28% | viability, T/C [26] 40.4% | viability, T/C [5] 31.7% | viability, T/C [6] 25.1% | viability, T/C [7] 27.6% | viability, T/C [8] 23.8% | viability, T/C [27] 28.9% | viability, T/C [28] 42.2% | viability, T/C [9] 33.5% | viability, T/C [10] 24.6% | viability, T/C [11] 23.6% | viability, T/C [12] 25.8% | viability, T/C [29] 40% | viability, T/C [30] 38.1% | viability, T/C [13] 35.7% | viability, T/C [14] 20.3% | viability, T/C [15] 22.8% | viability, T/C [16] 22.9% | viability, T/C [31] 32.3% | viability, T/C [32] 41.6% | viability, T/C [17] 39.1% | viability, T/C [18] 26.8% | viability, T/C [19] 19.3% | viability, T/C [20] 25.5% | viability, T/C [33] 38.2% | viability, T/C [34] 41.1% | viability, T/C [21] 32.7% | viability, T/C [22] 22.7% | viability, T/C [23] 23.4% | viability, T/C [24] 32.3% | viability, T/C [35] 41.9% | viability, T/C [36] 39.9%
< 31.6 nM: IC50 (second compound 0.000949 µM) | IC50 (second compound 0.003 µM) | IC50 (second compound 0.00949 µM) | IC50 (second compound 0.03 µM) | IC50 (second compound 0.0949 µM) | IC50 (second compound 0.3 µM)
